Columns and labels:
[1] = target: T1, casein kinase 2 α′ subunit (CK2α′) (Homo sapiens, UniProt P19784); test: ITC ([…]); also SPR KD […], NanoDSF, CETSA, DARTS, pulldown, LC–MS/MS of covalently modified peptide; type: binding
T1 construct: gene CSNK2A2; human recombinant CK2α′ protein

[2] = target: T2, casein kinase 2 α′ subunit (CK2α′) (Homo sapiens, UniProt P19784, R173A); test: ITC; type: binding
T2 construct: gene CSNK2A2
T2 sequence (P19784 1-350 R173A): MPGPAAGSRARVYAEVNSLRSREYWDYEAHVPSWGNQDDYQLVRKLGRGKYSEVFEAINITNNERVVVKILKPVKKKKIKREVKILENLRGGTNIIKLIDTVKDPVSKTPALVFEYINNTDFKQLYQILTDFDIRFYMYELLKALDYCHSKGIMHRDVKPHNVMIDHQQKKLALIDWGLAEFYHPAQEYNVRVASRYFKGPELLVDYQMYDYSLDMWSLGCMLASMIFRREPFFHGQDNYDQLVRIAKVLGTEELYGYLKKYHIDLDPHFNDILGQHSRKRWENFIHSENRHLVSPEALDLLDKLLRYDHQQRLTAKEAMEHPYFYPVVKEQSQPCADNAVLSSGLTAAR

T1 sequence (P19784 whole entry): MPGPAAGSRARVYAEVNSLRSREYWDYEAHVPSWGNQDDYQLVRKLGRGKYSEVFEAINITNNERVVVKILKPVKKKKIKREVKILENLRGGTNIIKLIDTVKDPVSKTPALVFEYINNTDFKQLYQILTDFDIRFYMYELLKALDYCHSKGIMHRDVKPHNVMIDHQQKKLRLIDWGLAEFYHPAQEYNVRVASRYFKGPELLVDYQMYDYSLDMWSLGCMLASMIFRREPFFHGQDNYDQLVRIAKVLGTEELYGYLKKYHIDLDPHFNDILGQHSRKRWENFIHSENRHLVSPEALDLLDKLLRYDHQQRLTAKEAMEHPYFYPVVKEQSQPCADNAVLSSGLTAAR

Kd [1]: 1060 nM
Kd [2]: 413 nM
Compound: C[C@@H]1O[C@@H](O[C@@H]2[C@@H](O)[C@H](OCCc3ccc(O)c(O)c3)O[C@H](CO[C@@H]3O[C@H](CO)[C@@H](O)[C@H](O)[C@H]3O)[C@H]2OC(=O)/C=C/c2ccc(O)c(O)c2)[C@H](O)[C@H](O)[C@H]1O [ECH, echinacoside]

— paper PMC7893052, “Small molecule induces mitochondrial fusion for neuroprotection via targeting CK2 without affecting its conventional kinase activity” (Signal Transduction and Targeted Therapy, 2021)
